In this assay the target is T1, ALK2 (Homo sapiens, UniProt Q04771).
T1 construct: purchased ThermoFisher Scientific (Life Technologies)
T1 sequence (Q04771 21-509): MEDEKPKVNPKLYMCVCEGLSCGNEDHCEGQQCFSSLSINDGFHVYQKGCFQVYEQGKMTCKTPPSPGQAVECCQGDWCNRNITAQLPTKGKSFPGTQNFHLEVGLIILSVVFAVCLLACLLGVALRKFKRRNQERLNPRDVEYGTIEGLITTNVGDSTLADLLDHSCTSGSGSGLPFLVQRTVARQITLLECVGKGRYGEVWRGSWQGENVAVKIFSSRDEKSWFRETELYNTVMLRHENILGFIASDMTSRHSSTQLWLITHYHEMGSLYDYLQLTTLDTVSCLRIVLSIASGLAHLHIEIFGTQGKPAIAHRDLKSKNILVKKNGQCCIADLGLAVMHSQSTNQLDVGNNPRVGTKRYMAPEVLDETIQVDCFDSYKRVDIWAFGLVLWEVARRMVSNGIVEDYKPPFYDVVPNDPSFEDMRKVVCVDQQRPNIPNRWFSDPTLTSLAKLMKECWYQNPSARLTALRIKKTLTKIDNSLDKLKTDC
The assay is described as follows: LanthaScreen Eu Kinase Binding Assay, ALK2 inhibition. The following applies: 1 micromolar concentration. How it is done:
Biochemical assays to measure the inhibitory effects of the compounds were performed by ThermoFisher Scientific (Life Technologies). ALK2 inhibition was tested using LanthaScreen™ Eu Kinase Binding Assay screening protocol.
(In TR-FRET formats the signal depends on donor and acceptor labels being close together.)

For the compound `C=C(C)c1nc2c(c(Nc3cn(-c4cc(OC)c(OC)c(OC)c4)cn3)n1)CCCC2` [Compound 88c, 2-(prop-1-en-2-yl)-N-(1-(3,4,5-trimethoxyphenyl)-1H-imidazol-4-yl)-5,6,7,8-tetrahydroquinazolin-4-amine], the inhibition (in general, how much of the control response was suppressed) at 1 µM was > 50%. For `C=C(C)c1nc(Nc2cn(-c3cc(OC)c(OC)c(OC)c3)cn2)nc2cc(OC)c(OC)cc12` [Compound 68b, 6,7-dimethoxy-4-(prop-1-en-2-yl)-N-(1-(3,4,5-trimethoxyphenyl)-1H-imidazol-4-yl)quinazolin-2-amine] the value was > 50%. For `COc1cc(-n2cnc(Nc3nc(C(C)C)nc4c3cnn4C3CCOC3)c2)cc(OC)c1OC` (centres unmarked) [Compound 21c, 6-isopropyl-1-(tetrahydrofuran-3-yl)-N-(1-(3,4,5-trimethoxyphenyl)-1H-imidazol-4-yl)-1H-pyrazolo[3,4-d]pyrimidin-4-amine] the value was > 50%; for `COc1cc(-n2cnc(Nc3nc(C(C)C)nn4cccc34)c2)cc(OC)c1OC` [Compound 67a, 2-isopropyl-N-(1-(3,4,5-trimethoxyphenyl)-1H-imidazol-4-yl)pyrrolo[2,1-f][1,2,4]triazin-4-amine], > 50%.

`COc1cc(-n2cnc(Nc3nc(CC(C)C)nc4c3cnn4C(C)C)c2)cc(OC)c1OC` [Compound 6a, 6-isobutyl-1-isopropyl-N-(1-(3,4,5-trimethoxyphenyl)-1H-imidazol-4-yl)-1H-pyrazolo[3,4-d]pyrimidin-4-amine]: the inhibition at 1 µM is > 50%.

As for `COc1cc(-n2cnc(Nc3nc(CC4CC4)nc4c3cnn4CC(C)C)c2)cc(OC)c1OC` [Compound 126e, 6-(cyclopropylmethyl)-1-isobutyl-N-(1-(3,4,5-trimethoxyphenyl)-1H-imidazol-4-yl)-1H-pyrazolo[3,4-d]pyrimidin-4-amine], the inhibition at 1 µM is > 50%.

Regarding `COc1cc(-n2cnc(Nc3nc(CC4CC4)nc4c3cnn4C3CC3)c2)cc(OC)c1OC` [Compound 122e, 1-cyclopropyl-6-(cyclopropylmethyl)-N-(1-(3,4,5-trimethoxyphenyl)-1H-imidazol-4-yl)-1H-pyrazolo[3,4-d]pyrimidin-4-amine], the inhibition at 1 µM was > 50%. For `C=C(C)c1nc(Nc2cn(-c3cc(OC)c(OC)c(OC)c3)cn2)c2sc(C)cc2n1` [Compound 84c, 6-methyl-2-(prop-1-en-2-yl)-N-(1-(3,4,5-trimethoxyphenyl)-1H-imidazol-4-yl)thieno[3,2-d]pyrimidin-4-amine] the value was > 50%; for `C=C(C)c1nc2c(c(Nc3cn(-c4cc(OC)c(OC)c(OC)c4)cn3)n1)CCN(C(=O)OC(C)(C)C)C2` [Compound 76c, tert-butyl 2-(prop-1-en-2-yl)-4-((1-(3,4,5-trimethoxyphenyl)-1H-imidazol-4-yl)amino)-5,6-dihydropyrido[3,4-d]pyrimidine-7 (8H)-carboxylate], < 50%; for `C=C(C)c1nc(Nc2cn(-c3cc(OC)c(OC)c(OC)c3)cn2)c2ncccc2n1` [Compound 78c, 2-(prop-1-en-2-yl)-N-(1-(3,4,5-trimethoxyphenyl)-1H-imidazol-4-yl)pyrido[3,2-d]pyrimidin-4-amine], > 50%. As for `COc1cc(-n2cnc(Nc3nc(C4CC4)nc4c3CCC4)c2)cc(OC)c1OC` [Compound 115b, 2-cyclopropyl-N-(1-(3,4,5-trimethoxyphenyl)-1H-imidazol-4-yl)-6,7-dihydro-5H-cyclopenta[d]pyrimidin-4-amine], the inhibition at 1 µM was > 50%.

Consider `COc1cc(-n2cnc(Nc3nc(CC4CC4)nc4c3cnn4C(C)C)c2)cc(OC)c1OC` [Compound 34d, 6-(cyclopropylmethyl)-1-isopropyl-N-(1-(3,4,5-trimethoxyphenyl)-1H-imidazol-4-yl)-1H-pyrazolo[3,4-d]pyrimidin-4-amine], for which the inhibition at 1 µM is > 50%. For `C=C(C)c1nc(Nc2cn(-c3cc(OC)c(OC)c(OC)c3)cn2)c2cc(F)ccc2n1` [Compound 95c, 6-fluoro-2-(prop-1-en-2-yl)-N-(1-(3,4,5-trimethoxyphenyl)-1H-imidazol-4-yl)quinazolin-4-amine] the value was > 50%; for `C=C(C)c1nc(Nc2cn(-c3cc(OC)c(OC)c(OC)c3)cn2)c2ncn(C(C)C)c2n1` [Compound 74c, 9-isopropyl-2-(prop-1-en-2-yl)-N-(1-(3,4,5-trimethoxyphenyl)-1H-imidazol-4-yl)-9H-purin-6-amine], > 50%; for `COc1cc(-n2cnc(Nc3nc(C(C)C)c4sccc4n3)c2)cc(OC)c1OC` [Compound 54a, 4-isopropyl-N-(1-(3,4,5-trimethoxyphenyl)-1H-imidazol-4-yl)thieno[3,2-d]pyrimidin-2-amine], > 50%. Next, `COc1cc(-n2cnc(Nc3nc(C(F)(F)F)nc4c3cnn4C(C)C)c2)cc(OC)c1OC` [Compound 26a, 1-isopropyl-6-(trifluoromethyl)-N-(1-(3,4,5-trimethoxyphenyl)-1H-imidazol-4-yl)-1H-pyrazolo[3,4-d]pyrimidin-4-amine]: > 50%; `COc1cc(-n2cnc(Nc3nc(C(C)C)nc4cc(C)sc34)c2)cc(OC)c1OC` [Compound 85a, 2-isopropyl-6-methyl-N-(1-(3,4,5-trimethoxyphenyl)-1H-imidazol-4-yl)thieno[3,2-d]pyrimidin-4-amine]: > 50%; `COc1cc(-n2cnc(Nc3nc(C(C)C)nc4c(C)csc34)c2)cc(OC)c1OC` [Compound 96a, 2-isopropyl-7-methyl-N-(1-(3,4,5-trimethoxyphenyl)-1H-imidazol-4-yl)thieno[3,2-d]pyrimidin-4-amine]: > 50%. For `COc1cc(-n2cnc(Nc3nc(C(C)CC(=O)O)nc4c3cnn4C(C)C)c2)cc(OC)c1OC` (centres unmarked) [Compound 106a, 3-(1-isopropyl-4-((1-(3,4,5-trimethoxyphenyl)-1H-imidazol-4-yl)amino)-1H-pyrazolo[3,4-d]pyrimidin-6-yl)butanoic acid] the value was > 50%; for `COc1cc(-n2cnc(Nc3nc(C(C)C)c4ccsc4n3)c2)cc(OC)c1OC` [Compound 91a, 4-isopropyl-N-(1-(3,4,5-trimethoxyphenyl)-1H-imidazol-4-yl)thieno[2,3-d]pyrimidin-2-amine], > 50%; for `COc1cc(-n2cnc(Nc3nc(CO)nc4c3cnn4C(C)C)c2)cc(OC)c1OC` [Compound 36e, (1-isopropyl-4-((1-(3,4,5-trimethoxyphenyl)-1H-imidazol-4-yl)amino)-1H-pyrazolo[3,4-d]pyrimidin-6-yl)methanol], > 50%. As for `CCCCCn1ncc2c(Nc3cn(-c4cc(OC)c(OC)c(OC)c4)cn3)nc(C(C)C)nc21` [Compound 16c, 6-isopropyl-1-pentyl-N-(1-(3,4,5-trimethoxyphenyl)-1H-imidazol-4-yl)-1H-pyrazolo[3,4-d]pyrimidin-4-amine], the inhibition at 1 µM was > 50%.

Turning to `COc1cc(-n2cnc(Nc3nc(C4CCN(C(=O)OC(C)(C)C)C4)nc4c3cnn4C(C)C)c2)cc(OC)c1OC` (centres unmarked) [Compound 41a, tert-butyl 3-(1-isopropyl-4-((1-(3,4,5-trimethoxyphenyl)-1H-imidazol-4-yl)amino)-1H-pyrazolo[3,4-d]pyrimidin-6-yl)pyrrolidine-1-carboxylate], the inhibition at 1 µM was > 50%. For `COc1cc(-n2cnc(Nc3nc(C(C)CC(=O)NC4CC4)nc4c3cnn4C(C)C)c2)cc(OC)c1OC` (centres unmarked) [Compound 107a, N-cyclopropyl-3-(1-isopropyl-4-((1-(3,4,5-trimethoxyphenyl)-1H-imidazol-4-yl)amino)-1H-pyrazolo[3,4-d]pyrimidin-6-yl)butanamide] the value was > 50%; for `COc1cc(-n2cnc(Nc3nc(C(C)C)nc4c3ccn4C(C)C)c2)cc(OC)c1OC` [Compound 98a, 2,7-diisopropyl-N-(1-(3,4,5-trimethoxyphenyl)-1H-imidazol-4-yl)-7H-pyrrolo[2,3-d]pyrimidin-4-amine], > 50%; for `COc1cc(-n2cnc(Nc3nc(C4CC(F)(F)C4)nc4c3cnn4C(C)C)c2)cc(OC)c1OC` [Compound 28e, 6-(3,3-difluorocyclobutyl)-1-isopropyl-N-(1-(3,4,5-trimethoxyphenyl)-1H-imidazol-4-yl)-1H-pyrazolo[3,4-d]pyrimidin-4-amine], > 50%. Next, `COc1cc(-n2cnc(Nc3nc(C(C)CC(=O)NCCO)nc4c3cnn4C(C)C)c2)cc(OC)c1OC` (centres unmarked) [Compound 109a, N-(2-hydroxyethyl)-3-(1-isopropyl-4-((1-(3,4,5-trimethoxyphenyl)-1H-imidazol-4-yl)amino)-1H-pyrazolo[3,4-d]pyrimidin-6-yl)butanamide]: < 50%; `C=C(C)c1nc(Nc2cn(-c3cc(OC)c(OC)c(OC)c3)cn2)c2ccc(OC)cc2n1` [Compound 64c, 7-methoxy-2-(prop-1-en-2-yl)-N-(1-(3,4,5-trimethoxyphenyl)-1H-imidazol-4-yl)quinazolin-4-amine]: > 50%; `COc1cc(-n2cnc(NC3=NC(C(C)C)=NC4C=COC34)c2)cc(OC)c1OC` (centres unmarked) [Compound 105a, 2-isopropyl-N-(1-(3,4,5-trimethoxyphenyl)-1H-imidazol-4-yl)-4a,7a-dihydrofuro[3,2-d]pyrimidin-4-amine]: > 50%.

The record behind these values is US20240270750A1, “IMIDAZOLE-CONTAINING INHIBITORS OF ALK2 KINASE” (BioCryst Pharmaceuticals, Inc., priority 2021, published 2024).
